Measurements reported in PMC9863136, “Synthesis and DNase I Inhibitory Properties of New Squaramides” (Molecules, 2023).

Experiments:
[1] = target: bovine pancreatic DNase I (Bos taurus, UniProt P00639); test: in vitro DNase I inhibition assay (spectrophotometric, absorbance of oligonucleotides at 260 nm); type: biochemical
Method: Compounds 3a–c were included in an in vitro DNase I inhibition assay.
Evaluation of DNase I inhibition. In vitro determination of the inhibitory activity of compounds 3a–c against bovine pancreatic DNase I was performed using the spectrophotometric method described by Kolarević et al., which is based on measuring the absorbance of the formed oligonucleotides at 260 nm.

Chain of bovine pancreatic DNase I (P00639 23-282): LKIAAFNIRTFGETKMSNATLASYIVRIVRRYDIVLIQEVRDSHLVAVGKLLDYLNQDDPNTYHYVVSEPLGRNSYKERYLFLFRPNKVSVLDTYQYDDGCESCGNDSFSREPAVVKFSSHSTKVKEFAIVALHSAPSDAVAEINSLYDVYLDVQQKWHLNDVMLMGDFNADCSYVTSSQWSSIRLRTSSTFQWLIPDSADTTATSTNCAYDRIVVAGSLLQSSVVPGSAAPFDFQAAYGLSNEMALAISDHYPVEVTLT

melting point	IC50 [1]	SMILES
139.8 to 141.2 °C	54.5 ± 8.07 µM	CCOc1c(NCCc2cccnc2)c(=O)c1=O [Compound 3a]
	57.8 ± 9.67 µM	CCOc1c(NCCc2ccncc2)c(=O)c1=O [Compound 3b]
	48 ± 7.98 µM	CCOc1c(NC(C)Cc2cccnc2)c(=O)c1=O (centres unmarked) [Compound 3c, 3-Ethoxy-4-((1-(pyridin-3-yl)propan-2-yl)amino)cyclobut-3-ene-1,2-dione]
	358 ± 40.7 µM	CN(C)c1ccc(C(=C2C=CC(=[N+](C)C)C=C2)c2ccc(N(C)C)cc2)cc1 [crystal violet, reference compound]
